Test results published in PMC9016704, “Dichlorophenylpyridine-Based Molecules Inhibit Furin through an Induced-Fit Mechanism” (ACS Chemical Biology, 2022).
Read-outs that look alike come from different tables or passages of the source. Non-standard residues stand in square brackets, D forms with d. Residues, ends and D or L forms follow the SMILES beside them. *: point of attachment. AMC = Cc1cc(=O)oc2cc(N*)ccc12; pGlu = O=C1CC[C@@H](C(=O)O)N1

Assays:
furin [1] = molecular target: T1, furin (Homo sapiens, UniProt P09958); test: Surface plasmon resonance binding to immobilized furin; details: for koff: read-out: koff Mean ± SD; for kon: read-out: kon Mean ± SD; for residence time: reciprocal of the mean koff, read-out: residence time τ
Method: As the (3,5-dichlorophenyl)pyridine derivatives bind tightly to furin, we used single-cycle kinetic experiments to determine their off-rates.[18] […]
SPR-experiments. 1, 3 and hexa-D-Arginine 14 were dissolved to a 10 mM stock solution in DMSO. This stock solution was initially diluted 100-fold in running buffer (10 mM HEPES pH 7.5, 100 mM NaCl, 2 mM CaCl2; 0.05% Tween; 1% DMSO) to a concentration of 100 µM and 1% DMSO. The stock solution in 1% DMSO was then further diluted in running buffer with […]
Furin was immobilized onto a NTA-chip after pre-loading with Ni2+ using standard procedures.
Immobilization levels of furin were in the range of 6000-6500 RU. Binding studies were performed with a Biacore T200 SPR system at 25°C in 10 mM HEPES pH 7.5, 100 mM NaCl, 2 mM CaCl2; 0.05% (v/v) Tween 20, and 1% (v/v) DMSO. Inhibitor 1 and 3 concentrations were […]
and 500 nM. Binding studies for 1 and 3 were performed in the single-cycle kinetic mode using […]
Target sequence in this assay (P09958 108-794): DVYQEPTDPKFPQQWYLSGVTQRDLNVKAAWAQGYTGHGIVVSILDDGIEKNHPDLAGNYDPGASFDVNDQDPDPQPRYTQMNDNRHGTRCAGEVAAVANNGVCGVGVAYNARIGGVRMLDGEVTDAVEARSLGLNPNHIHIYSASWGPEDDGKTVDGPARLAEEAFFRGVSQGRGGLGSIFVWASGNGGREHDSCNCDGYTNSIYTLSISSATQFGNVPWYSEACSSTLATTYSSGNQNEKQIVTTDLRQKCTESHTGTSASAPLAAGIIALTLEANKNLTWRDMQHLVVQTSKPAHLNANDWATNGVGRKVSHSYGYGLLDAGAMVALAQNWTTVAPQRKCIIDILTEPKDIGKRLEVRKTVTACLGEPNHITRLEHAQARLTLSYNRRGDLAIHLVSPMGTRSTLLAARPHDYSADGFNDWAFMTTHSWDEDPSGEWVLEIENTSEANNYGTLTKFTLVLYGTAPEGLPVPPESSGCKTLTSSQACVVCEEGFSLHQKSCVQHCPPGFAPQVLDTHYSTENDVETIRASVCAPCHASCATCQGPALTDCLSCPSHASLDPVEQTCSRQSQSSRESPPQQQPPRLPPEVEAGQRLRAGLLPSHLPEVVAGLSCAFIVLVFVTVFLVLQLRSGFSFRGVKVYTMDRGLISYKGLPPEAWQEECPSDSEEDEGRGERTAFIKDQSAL

furin [2] = molecular target: T1, furin; test: biochemical
Target sequence in this assay (P09958 108-794): as above

furin [3] = molecular target: T1, furin; test: MALDI-TOF-MS-based furin activity assay, TGFβ-derived substrate; assay type: biochemical; set-up: made in house
Target sequence in this assay (P09958 108-574 limits assumed): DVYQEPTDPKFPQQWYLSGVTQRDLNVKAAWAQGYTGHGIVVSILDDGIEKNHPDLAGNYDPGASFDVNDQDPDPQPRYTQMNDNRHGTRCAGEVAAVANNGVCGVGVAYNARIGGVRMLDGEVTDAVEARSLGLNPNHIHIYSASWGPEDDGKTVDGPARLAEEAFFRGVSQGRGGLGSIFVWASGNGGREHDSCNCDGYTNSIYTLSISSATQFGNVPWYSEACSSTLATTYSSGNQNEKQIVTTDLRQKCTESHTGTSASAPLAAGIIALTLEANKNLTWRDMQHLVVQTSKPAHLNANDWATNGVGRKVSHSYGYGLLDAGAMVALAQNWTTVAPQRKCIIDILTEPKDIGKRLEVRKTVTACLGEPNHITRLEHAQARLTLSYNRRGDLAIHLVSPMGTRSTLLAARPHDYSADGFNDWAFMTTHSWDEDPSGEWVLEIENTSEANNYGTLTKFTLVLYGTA

furin [4] = system: furin; set-up: method as in earlier work; details: enzyme kinetics measurements; cited from earlier work
furin [5] = molecular target: T1, furin; test: Enzyme kinetic assay with fluorogenic substrate pERTKR-AMC; assay type: biochemical; set-up: made in house
Method: To determine the inhibition mode for compound 1, we performed enzyme kinetic assays with the fluorogenic PC substrate pyr-ERTKR-7-amino-4-methylcoumarin (pERTKR-AMC).
Additionally, internal calibration was performed using the monoisotopic peak of the respective […]
MALDI-TOF data, processed with flexAnalysis or MALDI Pharma Pulse, were exported as a comma delimited (.csv) file. Datasets were further processed with either GraphPad Prism (v9.00; GraphPad Software, La Jolla, CA) or in-house laboratory information management system (LIMS) software. Furin activity was tracked by analyzing the measured intensity for the enzymatic product as well as for the corresponding internal standard. Average control values were calculated and set to 100% activity (high controls) and 0% activity (low controls) while the response values of compound-containing wells were normalized against the controls and expressed as percentage of control (PoC). Determination of compound potencies was obtained by fitting the dose-response data to a four-parameter logistical equation.
Enzyme kinetics. Enzyme kinetic measurements were performed in 100 mM HEPES pH 7.5, 1 mM CaCl2, 0.01% (w/v) BSA, 0.001% (v/v) Tween20 with the fluorogenic substrate pyr-ERTKR-7-amino-4-methylcoumarin (pERTKR-AMC, Bachem) and 0.5 nM furin at 24°C. The reactions (100 µl) were initiated by addition of the substrate in 96-well black half area plates (Corning), pre-incubated for 30 min at 24°C and measured for 40 min in a 96-well plate reader (Tecan Infinite 200) at excitation and emission wavelengths of 380 nm and 460 nm, respectively. The Km value of pERTKR-AMC with furin was determined with 1:2 serial dilution series of the substrate from 100 µM to 0.78 µM. To investigate the inhibition mode of 1 with furin, 1:2 serial inhibitor dilution series were prepared in the concentration range between 100 nM and 0.78 nM and the reaction velocity was determined in presence of 4.4 µM, 8.9 µM and 13.3 µM pERTKR-AMC. Enzyme kinetic data were evaluated with GraphPad Prism. Km was calculated with the prebuild “Michaelis-Menten” model. […]
Target sequence in this assay (P09958 108-574 limits assumed): as above

furin [6] = system: furin; set-up: method as in earlier work; details: cell-based inhibition assays; cited from earlier work
furin [7] = molecular target: T1, furin; test: Protein thermostability measurement by nanoDSF; assay type: binding; set-up: made in house; details: for Tm #1 / Tm #2 / Tm Mean: furin-inhibitor complex; for Tm #1: replicate #1; for Tm #2: replicate #2; for Tm Mean: ligand-free furin 57.7 ± 0.1; for ΔTm: gain versus ligand-free furin
Source text: Interactions of inhibitors with furin increased the structural stability of the protease–inhibitor complexes compared with the ligand-free protease, which was indicated by an increase in the melting temperature (Tm).[23] We investigated the impact of the (3,5-dichlorophenyl)pyridine-based compounds on the structural stability of furin using differential scanning fluorimetry (nanoDSF[24]). […] The gain in Tm correlated well with the measured pIC50 (i.e., −log10(IC50)) values (Figure 2B), as reported for substrate-like inhibitors.[10],[25] […]
Protein thermostability measurement by nanoDSF. The thermostablity of furin-inhibitor complexes was further assessed by nanoDSF.16 In nanoDSF, protein unfolding was monitored by the change of the intrinsic fluorescence of the protein, mainly from tryptophan and tyrosine residues in the protein. 10 ul 0.2 mg mL-1 (3.8 µM) protein solutions (10mM Hepes/NaOH pH 7.5; 100 mM NaCl; 2 mM CaCl2) were loaded into nanoDSF grade standard capillaries (NanoTemper Technologies). The samples were heated up with a ramp rate of 1 °C min-1 over a temperature range of 20-95 °C. The thermal unfolding profiles of the proteins were recorded using the Prometheus NT.48 instrument (NanoTemper Technologies). Measurements were performed in duplicate. Unfolding transition temperatures (Tm) were automatically determined by the instrument software.
Target sequence in this assay (P09958 108-574 limits assumed): as above

[8] = system: Total TGFβ production in the lung; set-up: method as in earlier work; details: cited from earlier work; for Total TGFβ production in the lung reduced by: 10 mg/kg of body weight; for bioavailability: bleomycin-induced lung fibrosis mouse model
furin [9] = system: furin; set-up: method as in PMID 10958789; details: read-out: IC50 (literature); cited from earlier work
[10] = 25°C, hexa-D-Arg: multicycle, poor curve fit, read-out: KD Mean ± SD
[11] = TGFβ substrate, replicate #1, read-out: IC50 #1
[12] = TGFβ substrate, replicate #2, read-out: IC50 #2
[13] = TGFβ substrate, replicate #3, read-out: IC50 #3
[14] = TGFβ-derived substrate 2.5 µM, 0.02 nM furin, read-out: IC50 Mean ± SD
[15] = injected intraperitoneally, mice

Compound: COCCN1CCN(c2ccc(Oc3cc(CN4CCC(CNC(C)=O)CC4)cc(-c4cc(Cl)cc(Cl)c4)n3)cn2)CC1 [Inhibitor 1]
- koff (furin [1]; 25°C, single-cycle kinetic): 0.00018 s⁻¹
- kon (furin [1]; 25°C, single-cycle kinetic): 4600 ± 2500 M⁻¹ s⁻¹
- Kd (furin [1]; [10]): 28 ± 13 nM
- residence time (furin [1]): 92 min
- kon #1 (furin [1]; replicate #1): 4531 [Ms]-1
- Kd (furin [1]; replicate #1, read-out: KD #1): 48.7 nM
- kon #2 (furin [1]; replicate #2): 3563 [Ms]-1
- Kd (furin [1]; replicate #2, read-out: KD #2): 24.7 nM
- kon #3 (furin [1]; replicate #3): 8463 [Ms]-1
- Kd (furin [1]; replicate #3, read-out: KD #3): 26.1 nM
- IC50 (furin [2]; IC50 #1): 1 nM
- IC50 (furin [2]; IC50 #2): 1.1 nM
- IC50 (furin [3]; [11]): 2.6 nM
- IC50 (furin [3]; [12]): 2.4 nM
- IC50 (furin [3]; [13]): 2 nM
- IC50 (furin [3]; [14]): 2.3 nM
- IC50 (furin [4]): 1.3 nM
- inhibition mode (furin [5]; Dixon plot, pERTKR-AMC 4.4-13.3 μM): competitive
- Ki (furin [5]; competitive model, pERTKR-AMC 4.4, 8.9 and 13.3 µM, 0.5 nM furin): 3.8 ± 0.8 nM
- IC50 (furin [6]): 0.8 nM
- Tm #1 (furin [7]): 68.5 °C
- Tm #2 (furin [7]): 68.4 °C
- Tm Mean (furin [7]): 68.4 °C
- ΔTm (furin [7]): 10.8 °C

Compound: CC(=O)NCC1CCN(Cc2cc(Oc3cnc(N4CCN(CCC(C)C(=O)O)CC4)nc3)nc(-c3cc(Cl)cc(Cl)c3)c2)CC1 (centres unmarked) [Inhibitor 2]
- IC50 (furin [3]; [14]): 1.3 nM
- Total TGFβ production in the lung reduced by ([8]; oral, mice): 75%
- bioavailability ([8]; in words): comparably high
- oral availability ([8]; mice, in words): orally available
- IC50 (furin [4]): 0.5 nM
- IC50 (furin [6]): 5 nM
- Tm #1 (furin [7]): 69.4 °C
- Tm #2 (furin [7]): 69.2 °C
- Tm Mean (furin [7]): 69.3 °C
- ΔTm (furin [7]): 11.6 °C

Compound: CC(=O)NCC1CCN(Cc2cc(Oc3cnc(N4CCN(CCC(=O)O)CC4)nc3)nc(-c3cc(Cl)cc(Cl)c3)c2)CC1 [Inhibitor 3]
- koff (furin [1]; 25°C, single-cycle kinetic): 0.00031 s⁻¹
- kon (furin [1]; 25°C, single-cycle kinetic): 96000 M⁻¹ s⁻¹
- Kd (furin [1]; [10]): 3.1 ± 1.6 nM
- residence time (furin [1]): 53.7 min
- Kd (furin [1]; replicate #1, read-out: KD #1): 2.76 nM
- Kd (furin [1]; replicate #2, read-out: KD #2): 5.07 nM
- Kd (furin [1]; replicate #3, read-out: KD #3): 1.31 nM
- IC50 (furin [2]; IC50 #1): 0.5 nM
- IC50 (furin [2]; IC50 #2): 1 nM
- IC50 (furin [2]; IC50 Mean): 0.8 nM
- IC50 (furin [3]; [11]): 2 nM
- IC50 (furin [3]; [12]): 2.3 nM
- IC50 (furin [3]; [13]): 1.2 nM
- IC50 (furin [3]; [14]): 1.8 nM
- Total TGFβ production in the lung reduced by [8, 15]: 86%
- bioavailability ([8]; in words): comparably high
- IC50 (furin [4]): 0.16 nM
- IC50 (furin [6]): 10 nM
- Tm #1 (furin [7]): 68.7 °C
- Tm #2 (furin [7]): 68.5 °C
- Tm Mean (furin [7]): 68.6 °C
- ΔTm (furin [7]): 10.9 °C

Compound: CC(=O)NCC1CCN(Cc2cc(Oc3ccc(N4CCN(CCC(=O)O)CC4)nc3)nc(-c3cc(Cl)cc(Cl)c3)c2)CC1 [Inhibitor 4]
- IC50 (furin [3]; [14]): 2.6 nM
- Total TGFβ production in the lung reduced by [8, 15]: 69%
- bioavailability ([8]; in words): comparably high
- IC50 (furin [4]): 0.25 nM
- IC50 (furin [6]): 25.1 nM
- Tm #1 (furin [7]): 68.3 °C
- Tm #2 (furin [7]): 68.2 °C
- Tm Mean (furin [7]): 68.3 °C
- ΔTm (furin [7]): 10.5 °C

Compound: CN1CCN(c2ncc(Oc3cc(CN4CCC(OCC(=O)O)C4)cc(-c4cc(Cl)cc(Cl)c4)n3)cn2)CC1 (centres unmarked) [Inhibitor 5]
- IC50 (furin [3]; [14]): 78 nM
- IC50 (furin [4]): 13 nM
- IC50 (furin [6]): 630 nM
- Tm #1 (furin [7]): 61.8 °C
- Tm #2 (furin [7]): 61.8 °C
- Tm Mean (furin [7]): 61.8 °C
- ΔTm (furin [7]): 4.0 °C

Compound: N=C(N)NCCC[C@@H](N)C(=O)N[C@H](CCCNC(=N)N)C(=O)N[C@H](CCCNC(=N)N)C(=O)N[C@H](CCCNC(=N)N)C(=O)N[C@H](CCCNC(=N)N)C(=O)N[C@H](CCCNC(=N)N)C(N)=O [hexa-D-arginine, reference compound]
- koff Mean ± SD (furin [1]; 25°C, single-cycle kinetic): fast off-rate
- Kd (furin [1]; [10]): 530 ± 320 nM
- Kd (furin [1]; replicate #1, read-out: KD #1): 437 nM
- Kd (furin [1]; replicate #2, read-out: KD #2): 966 nM
- Kd (furin [1]; replicate #3, read-out: KD #3): 200 nM
- IC50 (furin [2]; IC50 Mean): 126 nM
- IC50 (furin [9]): 106 nM
- IC50 (furin [3]; IC50 #1, TGFβ substrate, replicate #1): 207 nM
- IC50 (furin [3]; IC50 #2, TGFβ substrate, replicate #2): 64.2 nM
- IC50 (furin [3]; IC50 #3, TGFβ substrate, replicate #3): 184 nM
- IC50 (furin [3]; IC50 Mean ± SD, TGFβ-derived substrate 2.5 µM, 0.02 nM furin): 152 ± 77 nM
- Tm #1 (furin [7]): 59.3 °C
- Tm #2 (furin [7]): 59.2 °C
- Tm Mean (furin [7]): 59.3 °C
- ΔTm (furin [7]): 1.6 °C

Compound: Cc1cc(=O)oc2cc(NC(=O)[C@H](CCCNC(=N)N)NC(=O)[C@H](CCCCN)NC(=O)[C@@H](NC(=O)[C@H](CCCNC(=N)N)NC(=O)[C@@H]3CCC(=O)N3)[C@@H](C)O)ccc12 [pERTKR-AMC, pyr-ERTKR-7-amino-4-methylcoumarin] ([pGlu]RTKR-{AMC})
- Km (furin [5]; Km of substrate pERTKR-AMC with furin): 9.6 µM

Compound: AQHLQSSRHRRALDTNY [TGFβ, peptide substrate surrogate derived from TGFβ]
- Km (furin [3]; assay-specific apparent Km of the TGFβ-derived peptide substrate, read-out: Km,app): 1.8 µM
